Data published in patent US9302986B2, “Substituted 3-haloallylamine inhibitors of ASSAO and uses thereof” (Boehringer Ingelheim International GmbH, priority 2012, dated 2016).
Where a name gives a salt, the structure may show the parent alone.

Experiments:
Recombinant human DAO = Recombinant human DAO (Homo sapiens (Human), UniProt P19801); test: Inhibition of human recombinant diamine oxidase; type: biochemical; details: putrescine 200 μM
Recombinant human MAO-B = Recombinant human MAO-B (Homo sapiens (Human), UniProt P27338); test: Inhibition of human recombinant MAO-B; type: biochemical; details: benzylamine 100 μM
Chain of Recombinant human MAO-B (P27338 whole entry): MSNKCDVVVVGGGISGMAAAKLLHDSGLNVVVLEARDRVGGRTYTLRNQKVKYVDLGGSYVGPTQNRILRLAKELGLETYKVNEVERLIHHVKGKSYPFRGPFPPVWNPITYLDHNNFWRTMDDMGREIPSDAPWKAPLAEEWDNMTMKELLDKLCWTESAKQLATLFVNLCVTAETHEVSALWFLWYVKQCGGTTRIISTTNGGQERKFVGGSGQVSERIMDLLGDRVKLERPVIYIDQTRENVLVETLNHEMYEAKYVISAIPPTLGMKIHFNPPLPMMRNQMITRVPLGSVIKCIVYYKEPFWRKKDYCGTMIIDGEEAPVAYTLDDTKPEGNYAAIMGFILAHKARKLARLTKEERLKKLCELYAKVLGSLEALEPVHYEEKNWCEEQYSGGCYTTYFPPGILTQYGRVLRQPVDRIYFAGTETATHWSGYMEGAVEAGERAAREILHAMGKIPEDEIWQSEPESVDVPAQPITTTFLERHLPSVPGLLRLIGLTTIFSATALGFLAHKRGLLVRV
Description: This vector containing human SSAO/VAP-1 residues was transfected into CHO-K1 glycosylation mutant cell line, Lec 8. A clone stably expressing human SSAO/VAP-1 was isolated and cultured in large scale. Active human SSAO/VAP-1 was purified and recovered using immunoaffinity chromatography. This was used as source for SSAO/VAP-1 activity. A high-throughput colorimetric assay was developed using either 96 or 384 well format. Briefly, in a standard 96 well plate assay 50 μL of purified human SSAO/VAP-1 (0.25 μg/mL) in 0.1 M NaPO4 buffer (pH 7.4) was added into each well.
The specificity of invention compounds was tested by determining their ability to inhibit MAO-B activities in vitro. Recombinant human MAO-B (0.06 mg/mL; Sigma Aldrich) was used as source of MAO-B enzyme activities.

[1] = molecular target: Endogenous SSAO/VAP-1 in rat fat (Rattus norvegicus (Rat), UniProt O08590); test: Inhibition of SSAO/VAP-1 in rat fat homogenate; type: biochemical; details: benzylamine 30 μM
Chain of Endogenous SSAO/VAP-1 in rat fat (O08590 whole entry): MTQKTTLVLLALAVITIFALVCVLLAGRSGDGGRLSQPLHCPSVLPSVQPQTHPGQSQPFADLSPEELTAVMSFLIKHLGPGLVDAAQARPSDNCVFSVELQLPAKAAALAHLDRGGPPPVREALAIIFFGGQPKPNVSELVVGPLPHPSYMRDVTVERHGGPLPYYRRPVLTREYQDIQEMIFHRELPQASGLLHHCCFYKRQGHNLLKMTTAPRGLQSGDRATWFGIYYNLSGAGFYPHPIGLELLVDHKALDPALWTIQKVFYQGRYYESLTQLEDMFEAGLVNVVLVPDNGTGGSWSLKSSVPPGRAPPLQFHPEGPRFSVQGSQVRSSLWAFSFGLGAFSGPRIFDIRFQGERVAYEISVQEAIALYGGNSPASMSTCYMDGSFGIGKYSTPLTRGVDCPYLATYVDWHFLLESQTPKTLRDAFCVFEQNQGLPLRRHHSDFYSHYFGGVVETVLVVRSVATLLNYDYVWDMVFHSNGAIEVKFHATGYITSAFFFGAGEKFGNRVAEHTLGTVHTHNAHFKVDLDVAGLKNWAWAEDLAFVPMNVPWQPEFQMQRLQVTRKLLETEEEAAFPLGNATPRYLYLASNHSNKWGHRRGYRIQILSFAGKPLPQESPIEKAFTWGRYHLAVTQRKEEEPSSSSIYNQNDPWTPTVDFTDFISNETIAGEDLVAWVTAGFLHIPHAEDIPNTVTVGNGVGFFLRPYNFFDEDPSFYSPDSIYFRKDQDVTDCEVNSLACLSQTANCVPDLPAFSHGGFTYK
Description: Abdominal fat from BALB/c mice, Wistar or Sprague Dawley rats, which are tissues enriched with SSAO/VAP-1-were surgically removed. For every gram of animal abdominal fat tissue, 1 mL of 0.1 M NaPO4 buffer (pH 7.4) was added. Tissues were homogenized using IKA Ultra-Turrax T 10 homogenizer for 3 min, homogenate was centrifuged for 15 min at 3000×g. The middle layer (clear supernatant) was removed without disturbing the top layer (high fat content) or the debris on the bottom of the tube. SSAO/VAP-1 activity was determined by checking the fluorescent signal. Km/Vmax values were determined and the fat homogenate was aliquoted and stored at −80 C until assays were performed.

recombinant human VAP-1 = recombinant human VAP-1 (Homo sapiens, UniProt Q16853); test: Inhibition of human recombinant SSAO/VAP-1 expressed in HMEC cells (cell lysate)
Description: A clone stably expressing human SSAO/VAP-1 was selected and was stored in liquid nitrogen until cell lysate was required for colorimetric assay. Briefly, HMEC cell expressing human SSAO/VAP-1 were grown in several 10 cm petri dishes, once the cells reached 100% confluency, cells were harvested and homogenates were prepared. Cells were washed twice with 5 mL of chilled HES buffer (20 mM HEPES, 1 mM EDTA, 250 mM sucrose, pH 7.4). HES buffer containing 1× protease inhibitor (Sigma Aldrich) and added and cells were incubated on ice for 3 min. Buffer was removed and cells were scraped and transferred to a centrifuge tube. Cell lysates were prepared by passing through 23 G needle for, 10 times and followed by 27 G needle for 10 times. Alternatively the cell lysates were prepared by using IKA Ultra-Turrax T 10 homogenizer for 3 min for every 10 mL of cell suspensions. Cells were then spun for 5 min at 300×g. The clear supernatant was transferred to new centrifuge tube and stored at −80° C. until colorimetric assay was performed. Prior to the assay, 0.5 mM pargyline was added in order to inhibit any residue MAO activities. […] Briefly, 50 μL of cell lysate was incubated with test compounds for 30 min at 37° C.

[2] = test system: LPS-induced neuroinflammation; test: Parkinson's disease Model A: systemic exposure to LPS; type: in vivo, Long Evans rats; details: 2 mg/kg ip
Description: Parkinson's disease is a pathological, age-related neurodegenerative disorder, characterized by a specific and progressive degeneration of dopaminergic neurons.
Long Evans rats were dosed intraperitoneal (ip) with 2 mg/kg of Compound 9 or vehicle 1 h before the first (time 0 h) and the third (time 24 h) injections of LPS. At time 0 the animals received a dose of 10 mg/kg of LPS. At time 6 and 24 h the animals were dosed with 3 mg/kg of LPS solution, ip. 30 h after the first LPS injection, the animals received ip injections of lethabarb and were transcardially perfused with 400 ml. PBS at 4° C. followed by 400 ml of 4% paraformaldehyde (PFA). The brains were post fixed overnight in 4% PFA at 4° C. followed by 20% sucrose solution for 24 h. 30 μm sections were collected and stained for immunofluorescence, immunohistochemistry and western blot analysis.

[3] = test system: LPS-induced lung inflammation; test: Acute lung inflammation in the LPS driven model; details: 2 mg/kg
Description: The incision was closed with wound clips and the mice returned to cages.
Six hours after LPS/saline injection, the mice were anesthetized, the wound clips removed, the trachea was cannulated with a 23G blunt needle, and the lungs lavaged eight times with 0.5 ml heparinized saline. The lavage was pooled, gently inverted, and a sample retained for white blood cell (WBC) differential analysis. The remainder of the lavage was centrifuged, the supernatants used for cytokine analysis.

Chain of Recombinant human DAO (P19801 20-751): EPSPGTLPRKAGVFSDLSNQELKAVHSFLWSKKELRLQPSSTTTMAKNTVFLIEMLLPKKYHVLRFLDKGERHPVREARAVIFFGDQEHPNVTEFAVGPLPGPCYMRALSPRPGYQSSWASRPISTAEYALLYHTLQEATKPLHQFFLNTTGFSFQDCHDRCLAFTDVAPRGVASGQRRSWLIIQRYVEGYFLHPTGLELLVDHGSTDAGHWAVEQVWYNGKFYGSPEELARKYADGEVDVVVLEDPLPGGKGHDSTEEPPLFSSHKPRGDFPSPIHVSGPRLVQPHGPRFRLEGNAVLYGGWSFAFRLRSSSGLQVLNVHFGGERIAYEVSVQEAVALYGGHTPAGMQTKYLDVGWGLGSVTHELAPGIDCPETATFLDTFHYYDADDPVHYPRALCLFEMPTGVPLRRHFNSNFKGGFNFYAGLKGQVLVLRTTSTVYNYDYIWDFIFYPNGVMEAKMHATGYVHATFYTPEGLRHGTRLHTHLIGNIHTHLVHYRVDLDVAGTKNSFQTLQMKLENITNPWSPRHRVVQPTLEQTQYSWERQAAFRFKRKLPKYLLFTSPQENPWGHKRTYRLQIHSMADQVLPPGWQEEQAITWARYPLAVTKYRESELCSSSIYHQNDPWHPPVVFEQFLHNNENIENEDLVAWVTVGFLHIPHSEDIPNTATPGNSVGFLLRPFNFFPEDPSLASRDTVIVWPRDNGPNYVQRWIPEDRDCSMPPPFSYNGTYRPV

For NC/C(=C/F)COc1ccc(C(N)=O)cc1 [Compound 2, (Z)-4-(2-(Aminomethyl)-3-fluoroallyloxy)benzamide], the IC50 (Recombinant human DAO) was < 0.1 µM, the IC50 (Recombinant human MAO-B) was > 1 µM and the IC50 [1] was < 0.1 µM. The IC50 (recombinant human VAP-1) was < 0.1 µM.

NC/C(=C\F)COc1ccc(C(N)=O)cc1 [Compound 3, (E)-4-(2-(Aminomethyl)-3-fluoroallyloxy)benzamide] was tested, and the IC50 (Recombinant human DAO) was > 1 µM, the IC50 (Recombinant human MAO-B) was > 10 µM and the IC50 [1] was < 0.1 µM. The IC50 (recombinant human VAP-1) was < 0.1 µM.

CN(C)C(=O)c1ccc(OC/C(=C\F)CN)c(F)c1 [Compound 4, (Z)-4-(2-(Aminomethyl)-3-fluoroallyloxy)-3-fluoro-N,N-dimethylbenzamide] was tested, and the IC50 (Recombinant human DAO) was < 1 µM, the IC50 (Recombinant human MAO-B) was > 0.1 µM and the IC50 [1] was < 0.1 µM.

In the case of CN(C)C(=O)c1ccc(OC/C(=C\F)CN)c(Cl)c1 [Compound 6, (Z)-4-(2-(Aminomethyl)-3-fluoroallyloxy)-3-chloro-N,N-dimethylbenzamide], the IC50 (Recombinant human DAO) is reported as < 1 µM and the IC50 (Recombinant human MAO-B) is reported as > 1 µM.

COc1cc(C(=O)N(C)C)ccc1OCC(=CF)CN [Compound 7, 4-(2-(Aminomethyl)-3-fluoroallyloxy)-3-methoxy-N,N-dimethylbenzamide] was tested, and the IC50 (Recombinant human DAO) was < 1 µM, the IC50 (Recombinant human MAO-B) was > 10 µM and the IC50 (recombinant human VAP-1) was < 0.1 µM.

CN(C)C(=O)c1ccc(SCC(=CF)CN)cc1 [Compound 8, 4-(2-(Aminomethyl)-3-fluoroallylthio)-N,N-dimethylbenzamide] was tested, and the IC50 (Recombinant human MAO-B) was > 1 µM and the IC50 (recombinant human VAP-1) was < 0.1 µM.

For NC/C(=C/F)COc1ccc(S(N)(=O)=O)cc1 [Compound 9, (Z)-4-(2-(Aminomethyl)-3-fluoroallyloxy)benzenesulfonamide], the “neutrophil infiltration in the dorso-lateral striatum and hippocampus” value ([2]; 30 h after first LPS injection) was “reduced”, the “microglial cell recruitment and activation in the substantia nigra and dorso-lateral striatum” value ([2]; dendrites length, surface and volume) was “reduction” and the IC50 (Recombinant human DAO) was < 1 µM. For the same compound, the IC50 (Recombinant human MAO-B) was > 10 µM, the IC50 [1] was < 0.1 µM and the IL-6 levels ([3]; lavage supernatant) was “diminution”. For the same compound, the TNF-α levels ([3]; lavage supernatant) was “diminution”, the neutrophil infiltration ([3]; lung lavage six hours after LPS) was “significant reduction” and the IC50 (recombinant human VAP-1) was < 0.1 µM.

With CN(C)S(=O)(=O)c1ccc(OC/C(=C\F)CN)cc1 [Compound 10, (Z)-4-(2-(Aminomethyl)-3-fluoroallyloxy)-N,N-dimethylbenzenesulfonamide] the IC50 (Recombinant human DAO) was > 1 µM, the IC50 (Recombinant human MAO-B) was > 10 µM and the IC50 [1] was < 0.1 µM.

In the case of NC/C(=C\F)COc1ccc(S(N)(=O)=O)cc1 [Compound 11, (E)-4-(2-(Aminomethyl)-3-fluoroallyloxy)benzenesulfonamide], the IC50 (Recombinant human DAO) is reported as > 10 µM, the IC50 (Recombinant human MAO-B) is reported as > 10 µM and the IC50 [1] is reported as < 0.1 µM. For the same compound, the IC50 (recombinant human VAP-1) was < 0.1 µM.

In the case of CN(C)C(=O)c1ccc(OC/C(=C/F)CN)cc1 [Compound 13, hydrochloride], the IC50 (Recombinant human DAO) is reported as > 1 µM, the IC50 (Recombinant human MAO-B) is reported as > 0.1 µM and the IC50 [1] is reported as < 0.1 µM. For the same compound, the IC50 (recombinant human VAP-1) was < 0.1 µM.

For CN(C)S(=O)(=O)c1ccc(OC/C(=C/F)CN)cc1 [Compound 14, (E)-4-(2-(Aminomethyl)-3-fluoroallyloxy)-N,N-dimethylbenzenesulfonamide], the IC50 (Recombinant human DAO) was > 10 µM, the IC50 (Recombinant human MAO-B) was > 10 µM and the IC50 [1] was < 0.1 µM.

With CN(C)S(=O)(=O)c1cccc(OC/C(=C\F)CN)c1 [Compound 15, (Z)-3-(2-(Aminomethyl)-3-fluoroallyloxy)-N,N-dimethylbenzenesulfonamide] the IC50 (Recombinant human MAO-B) was > 100 µM and the IC50 [1] was < 0.1 µM.

In the case of CN(C)C(=O)c1ccc(OC/C(=C\F)CN)cc1 [Compound 18, (Z)-4-(2-(Aminomethyl)-3-fluoroallyloxy)-N,N-dimethylbenzamide], the IC50 (Recombinant human DAO) is reported as < 0.1 µM, the IC50 (Recombinant human MAO-B) is reported as > 0.1 µM and the IC50 [1] is reported as < 0.1 µM. The IC50 (recombinant human VAP-1) was < 0.1 µM.

CN(C)C(=O)c1ccc(OC/C(=C\F)CN)c(Br)c1 [Compound 20, (Z)-4-(2-(Aminomethyl)-3-fluoroallyloxy)-3-bromo-N,N-dimethylbenzamide] was tested, and the IC50 (Recombinant human DAO) was < 1 µM and the IC50 (Recombinant human MAO-B) was > 1 µM.

In the case of CCN(CC)C(=O)c1ccc(OC/C(=C/F)CN)cc1 [Compound 24, (E)-4-(2-(Aminomethyl)-3-fluoroallyloxy)-N,N-diethylbenzamide], the IC50 (Recombinant human DAO) is reported as > 10 µM, the IC50 (Recombinant human MAO-B) is reported as > 1 µM and the IC50 [1] is reported as < 0.1 µM.

CNC(=O)c1ccc(OC/C(=C/F)CN)cc1 [Compound 25, (E)-4-(2-(Aminomethyl)-3-fluoroallyloxy)-N-methylbenzamide] was tested, and the IC50 (Recombinant human DAO) was < 1 µM, the IC50 (Recombinant human MAO-B) was > 1 µM and the IC50 [1] was < 0.1 µM. The IC50 (recombinant human VAP-1) was < 0.1 µM.

Cc1cc(OC/C(=C\F)CN)ccc1C(=O)N(C)C [Compound 26, (Z)-4-(2-(Aminomethyl)-3-fluoroallyloxy)-N,N,2-trimethylbenzamide] was tested, and the IC50 (Recombinant human DAO) was < 1 µM, the IC50 (Recombinant human MAO-B) was > 1 µM and the IC50 (recombinant human VAP-1) was < 0.1 µM.

In the case of CNS(=O)(=O)c1ccc(OC/C(=C/F)CN)cc1 [Compound 28, (E)-4-(2-(Aminomethyl)-3-fluoroallyloxy)-N-methylbenzenesulfonamide], the IC50 (Recombinant human DAO) is reported as > 10 µM, the IC50 (Recombinant human MAO-B) is reported as > 10 µM and the IC50 [1] is reported as < 0.1 µM.

In the case of CNS(=O)(=O)c1ccc(OC/C(=C\F)CN)cc1 [Compound 29, (Z)-4-(2-(Aminomethyl)-3-fluoroallyloxy)-N-methylbenzenesulfonamide], the IC50 (Recombinant human DAO) is reported as > 1 µM, the IC50 (Recombinant human MAO-B) is reported as > 10 µM and the IC50 [1] is reported as < 0.1 µM.

With CCNS(=O)(=O)c1ccc(OC/C(=C/F)CN)cc1 [Compound 30, (E)-4-(2-(Aminomethyl)-3-fluoroallyloxy)-N-ethylbenzenesulfonamide] the IC50 (Recombinant human DAO) was > 10 µM, the IC50 (Recombinant human MAO-B) was > 10 µM and the IC50 [1] was < 0.1 µM.

For CCNS(=O)(=O)c1ccc(OC/C(=C\F)CN)cc1 [Compound 31, (Z)-4-(2-(Aminomethyl)-3-fluoroallyloxy)-N-ethylbenzenesulfonamide], the IC50 (Recombinant human DAO) was < 1 µM, the IC50 (Recombinant human MAO-B) was > 1 µM and the IC50 [1] was < 0.1 µM.

CC(C)NS(=O)(=O)c1ccc(OC/C(=C/F)CN)cc1 [Compound 32, (E)-4-(2-(Aminomethyl)-3-fluoroallyloxy)-N-isopropylbenzenesulfonamide] was tested, and the IC50 (Recombinant human DAO) was > 10 µM, the IC50 (Recombinant human MAO-B) was > 10 µM and the IC50 [1] was < 0.1 µM.

CC(C)NS(=O)(=O)c1ccc(OC/C(=C\F)CN)cc1 [Compound 33, (Z)-4-(2-(Aminomethyl)-3-fluoroallyloxy)-N-isopropylbenzenesulfonamide] was tested, and the IC50 (Recombinant human DAO) was < 1 µM, the IC50 (Recombinant human MAO-B) was > 10 µM and the IC50 [1] was < 0.1 µM.

Work on NC/C(=C/F)CCc1ccc(F)cc1 [Mofegiline, reference compound] yielded an IC50 [1] of 0.006 µM.
